Source: patent publication US7009052B2, “Sulfonamide derivatives” (Warner Lambert Company LLC, priority 2003, dated 2006)

These compounds were tested against T1, androgen receptor (Homo sapiens, UniProt P10275) (assay: AR Antagonist Cell Assay (MMTV-luciferase reporter, DHT-induced)). Conditions: MDA-MB453-MMTV clone 54-19 cells, 100 pM DHT, 17 hr.
T1 sequence (P10275 1-920 Q868H): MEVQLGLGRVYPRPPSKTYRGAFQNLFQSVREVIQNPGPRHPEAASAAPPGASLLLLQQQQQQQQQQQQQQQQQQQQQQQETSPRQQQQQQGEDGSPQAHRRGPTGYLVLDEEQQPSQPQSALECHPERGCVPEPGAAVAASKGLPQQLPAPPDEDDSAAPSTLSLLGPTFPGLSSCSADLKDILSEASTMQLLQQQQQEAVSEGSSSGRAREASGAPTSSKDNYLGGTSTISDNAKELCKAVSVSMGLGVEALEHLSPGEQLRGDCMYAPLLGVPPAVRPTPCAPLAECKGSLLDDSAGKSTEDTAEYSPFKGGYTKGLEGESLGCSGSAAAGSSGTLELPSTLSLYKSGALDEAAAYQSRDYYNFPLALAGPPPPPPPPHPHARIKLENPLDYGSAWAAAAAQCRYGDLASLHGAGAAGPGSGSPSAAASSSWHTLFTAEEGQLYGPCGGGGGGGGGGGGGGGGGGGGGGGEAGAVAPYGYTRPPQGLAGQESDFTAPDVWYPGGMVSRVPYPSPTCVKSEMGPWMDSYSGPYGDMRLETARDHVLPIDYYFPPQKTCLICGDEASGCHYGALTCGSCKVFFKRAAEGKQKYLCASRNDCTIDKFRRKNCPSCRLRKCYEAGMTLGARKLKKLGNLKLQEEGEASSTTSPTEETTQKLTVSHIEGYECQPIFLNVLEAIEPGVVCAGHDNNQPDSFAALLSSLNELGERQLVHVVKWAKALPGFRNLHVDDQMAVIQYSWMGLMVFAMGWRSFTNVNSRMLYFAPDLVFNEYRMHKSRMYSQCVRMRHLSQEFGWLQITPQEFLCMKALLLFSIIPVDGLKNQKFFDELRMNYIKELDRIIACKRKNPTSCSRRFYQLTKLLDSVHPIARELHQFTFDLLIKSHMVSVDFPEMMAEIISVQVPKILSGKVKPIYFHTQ
Assay type: cell-based
Protocol: The compounds ability to antagonize the effects of androgen on the androgen receptor were determined in the protocol described immediately below.
Experimental Procedure for AR Antagonist Cell Assay
Cell line: MDA-MB453-MMTV clone 54-19. This cell line is a stable transfected cell line with MDA-MB453 cell background (human breast tumor cell expressing high level of androgen receptor). A MMTV minimal promoter containing ARE was first cloned in front of a firefly luciferase reporter gene. Then the cascade was cloned into transfection vector pUV120puro. Electroporation method was used for transfecting MDA-MB-453 cell. Puromycin resistant stable cell line was selected.
Cell Culture Media and Reagents:
Culture medium: DMEM (high glucose, Gibco cat #: 11960-044), 10% FBS, and 1% L-glutamine
Plating medium: DMEM (phenol red free), 10% charcoal treated HyClone serum, 1% L-glutamine
Assay medium: DMEM (phenol red free), 1% charcoal treated HyClone serum, 1% L-glutamine, and 1% penicillin/streptomycin
3× luciferase buffer: 2% beta-mercaptoethanol, 0.6% ATP, 0.0135% luciferine in cell lysis buffer
• 1. Cells are maintained in culture medium, splitting cells when they reach 80–90% confluence • 2. To test compounds, 10,000 cells/well are plated to opaque 96 cell culture plate in 100 ul/well plating medium, culture for overnight at 37° C. in cell culture incubator • 3. Carefully remove plating medium, then add 80 ul/well of pre-warmed assay medium, add 10 ul/well testing compound (final concentration at 10 uM or 1 uM), incubate at 37° C. for 30 minutes • 4. Add 10 ul/well freshly prepared DHT (final concentration at 100 pM) to each well, incubate at 37° C. for 17 hr (overnight) • 5. Add 50 ul/well 3× luciferase buffer, incubate at room temperature for 5 minutes, then count on Luminometer The fold induction over background by 100 pM DHT in the absence of testing compounds is standardized as 100% and experimental result is expressed as percentage of inhibition by testing compounds. TABLE3

| SMILES | IC50 |
| --- | --- |
| CCCCN(CC)S(=O)(=O)c1ccc2c(c1)c(C(F)(F)F)cc(=O)n2C [Example 4, 1-Methyl-2-oxo-4-trifluoromethyl-1,2-dihydroquinoline-6-sulfonicacid butylethylamide] | 10.6 µM |
| CCCCN(CCO)S(=O)(=O)c1ccc2c(c1)c(C(F)(F)F)cc(=O)n2C [Example 5, 1-Methyl-2-oxo-4-trifluoromethyl-1,2-dihydroquinoline-6-sulfonicacid butyl(2-hydroxyethyl)-amide] | > 10 µM |
| Cn1c(=O)cc(C(F)(F)F)c2cc(S(=O)(=O)N(CCO)Cc3ccccc3)ccc21 [Example 6, 1-Methyl-2-oxo-4-trifluoromethyl-1,2-dihydroquinoline-6-sulfonicacid benzyl(2-hydroxyethyl)-amide] | > 10 µM |
| CCCCCN(CCO)S(=O)(=O)c1ccc2c(c1)c(C(F)(F)F)cc(=O)n2C [Example 7, 1-Methyl-2-oxo-4-trifluoromethyl-1,2-dihydroquinoline-6-sulfonicacid (2-hydroxyethyl)-pentylamide] | > 10 µM |
| CCCCN(C)S(=O)(=O)c1ccc2c(c1)c(C(F)(F)F)cc(=O)n2C [Example 8, 1-Methyl-2-oxo-4-trifluoromethyl-1,2-dihydroquinoline-6-sulfonicacid butyimethylamide] | > 10 µM |
| Cn1c(=O)cc(C(F)(F)F)c2cc(S(=O)(=O)N(Cc3ccccc3)Cc3ccccc3)ccc21 [Example 9, 1-Methyl-2-oxo-4-trifluoromethyl-1,2-dihydroquinoline-6-sulfonicacid dibenzylamide] | > 10 µM |
| CCN(Cc1ccccc1)S(=O)(=O)c1ccc2c(c1)c(C(F)(F)F)cc(=O)n2C [Example 10, 1-Methyl-2-oxo-4-trifluoromethyl-1,2-dihydroquinoline-6-sulfonicacid benzylethylamide] | 6.35 µM |
| CN(c1ccccc1)S(=O)(=O)c1ccc2c(c1)c(C(F)(F)F)cc(=O)n2C [Example 12, 1-Methyl-2-oxo-4-trifluoromethyl-1,2-dihydroquinoline-6-sulfonicacid methylphenylamide] | > 10 µM |
| Cc1cccc(NS(=O)(=O)c2ccc3c(c2)c(C(F)(F)F)cc(=O)n3C)c1 [Example 13, 1-Methyl-2-oxo-4-trifluoromethyl-1,2-dihydroquinoline-6-sulfonicacid m-tolylamide] | 0.76 µM |
| Cc1ccc(NS(=O)(=O)c2ccc3c(c2)c(C(F)(F)F)cc(=O)n3C)cc1 [Example 14, 1-Methyl-2-oxo-4-trifluoromethyl-1,2-dihydroquinoline-6-sulfonicacid p-tolylamide] | 1.03 µM |
| C#Cc1ccc(NS(=O)(=O)c2ccc3c(c2)c(C(F)(F)F)cc(=O)n3C)cc1 [Example 15, 1-Methyl-2-oxo-4-trifluoromethyl-1,2-dihydroquinoline-6-sulfonicacid (4-ethynylphenyl)amide] | 1.17 µM |
| CCc1cccc(NS(=O)(=O)c2ccc3c(c2)c(C(F)(F)F)cc(=O)n3C)c1 [Example 16, 1-Methyl-2-oxo-4-trifluoromethyl-1,2-dihydroquinoline-6-sulfonicacid (3-ethylphenyl)amide] | 5.03 µM |
| CCc1ccc(NS(=O)(=O)c2ccc3c(c2)c(C(F)(F)F)cc(=O)n3C)cc1 [Example 17, 1-Methyl-2-oxo-4-trifluoromethyl-1,2-dihydroquinoline-6-sulfonicacid (4-ethylphenyl)amide] | 0.87 µM |
| Cc1cccc(C)c1NS(=O)(=O)c1ccc2c(c1)c(C(F)(F)F)cc(=O)n2C [Example 18, 1-Methyl-2-oxo-4-trifluoromethyl-1,2-dihydroquinoline-6-sulfonicacid (2,6-dimethylphenyl)amide] | > 10 µM |
| Cn1c(=O)cc(C(F)(F)F)c2cc(S(=O)(=O)Nc3ccccc3CO)ccc21 [Example 19, 1-Methyl-2-oxo-4-trifluoromethyl-1,2-dihydroquinoline-6-sulfonicacid(2-hydroxymethylphenyl)amide] | > 10 µM |
| COc1ccccc1NS(=O)(=O)c1ccc2c(c1)c(C(F)(F)F)cc(=O)n2C [Example 20, 1-Methyl-2-oxo-4-trifluoromethyl-1,2-dihydroquinoline-6-sulfonicacid (2-methoxyphenyl)amide] | > 10 µM |
| Cn1c(=O)cc(C(F)(F)F)c2cc(S(=O)(=O)Nc3ccc(CC#N)cc3)ccc21 [Example 21, 1-Methyl-2-oxo-4-trifluoromethyl-1,2-dihydroquinoline-6-sulfonicacid (4-cyanomethylphenyl)amide] | 0.99 µM |
| Cn1c(=O)cc(C(F)(F)F)c2cc(S(=O)(=O)Nc3ccc4c(c3)CCC4)ccc21 [Example 22, 1-Methyl-2-oxo-4-trifluoromethyl-1,2-dihydroquinoline-6-sulfonicacid indan-5-ylamide] | 4.47 µM |
| Cn1c(=O)cc(C(F)(F)F)c2cc(S(=O)(=O)Nc3cccc4c3CCC4)ccc21 [Example 23, 1-Methyl-2-oxo-4-trifluoromethyl-1,2-dihydroquinoline-6-sulfonicacid indan-4-ylamide] | > 10 µM |
| CC(=O)c1cccc(NS(=O)(=O)c2ccc3c(c2)c(C(F)(F)F)cc(=O)n3C)c1 [Example 24, 1-Methyl-2-oxo-4-trifluoromethyl-1,2-dihydroquinoline-6-sulfonicacid (3-acetylphenyl)amide] | 4.23 µM |
| CC(C)c1ccc(NS(=O)(=O)c2ccc3c(c2)c(C(F)(F)F)cc(=O)n3C)cc1 [Example 25, 1-Methyl-2-oxo-4-trifluoromethyl-1,2-dihydroquinoline-6-sulfonicacid (4-isopropylphenyl)amide] | 8.61 µM |
| Cn1c(=O)cc(C(F)(F)F)c2cc(S(=O)(=O)Nc3ccc4c(c3)OCO4)ccc21 [Example 26, 1-Methyl-2-oxo-4-trifluoromethyl-1,2-dihydroquinoline-6-sulfonicacid benzo[1,3]dioxol-5-ylamide] | 4.04 µM |
| Cc1ccc(-c2ccccc2)cc1NS(=O)(=O)c1ccc2c(c1)c(C(F)(F)F)cc(=O)n2C [Example 27, 1-Methyl-2-oxo-4-trifluoromethyl-1,2-dihydroquinoline-6-sulfonicacid (4-methylbipheny-3-yl)amide] | 0.84 µM |
| CC(O)c1cccc(NS(=O)(=O)c2ccc3c(c2)c(C(F)(F)F)cc(=O)n3C)c1 (stereo not shown) [Example 28, 1-Methyl-2-oxo-4-trifluoromethyl-1,2-dihydro-quinoline-6-sulfonic acid [3-(1-hydroxyethyl)phenyl]-amide] | > 10 µM |
| CSc1cccc(NS(=O)(=O)c2ccc3c(c2)c(C(F)(F)F)cc(=O)n3C)c1 [Example 29, 1-Methyl-2-oxo-4-trifluoromethyl-1,2-dihydroquinoline-6-sulfonicacid (3-methylsulfanylphenyl)amide] | 3.72 µM |
| Cc1ccc(F)cc1NS(=O)(=O)c1ccc2c(c1)c(C(F)(F)F)cc(=O)n2C [Example 30, 1-Methyl-2-oxo-4-trifluoromethyl-1,2-dihydroquinoline-6-sulfonicacid (5-fluoro-2-methylphenyl)amide] | > 10 µM |
| Cn1c(=O)cc(C(F)(F)F)c2cc(S(=O)(=O)Nc3ccc(Cl)cc3)ccc21 [Example 31, 1-Methyl-2-oxo-4-trifluoromethyl-1,2-dihydroquinoline-6-sulfonicacid (4-chlorophenyl)amide] | 1.32 µM |
| Cn1c(=O)cc(C(F)(F)F)c2cc(S(=O)(=O)Nc3cc4ccccc4cn3)ccc21 [Example 32, 1-Methyl-2-oxo-4-trifluoromethyl-1,2-dihydroquinoline-6-sulfonicacid isoquinolin-3-ylamide] | > 10 µM |
